{
  "source": "patent US8609695B2",
  "about": "“Methods of treating and/or suppressing insulin resistance” (Endorecherche, Inc., priority 1999, dated 2013)",
  "key": {"[1]": {"system": "ovariectomized female rats", "test": "SERM comparison, energy balance and lipid-lipoprotein metabolism (Example 10)", "format": "in vivo, Rattus norvegicus", "conditions": "OVX rats, 20 days", "protocol": "For this purpose, tested compounds were administered by oral gavage for 20 days (0.5 mg/rat for each compound; 0.5 ml/rat) in 0.4% methylcellulose to ovariectomized female rats.\nd) Diet: • During acclimation period, rats received a certified rodent diet (Lab Diet #5002, pellet) and tap water ad libitum while during study period, they received a high carbonhydrate diet (diet #3) and tap water ad libitum. The diet was composed of (g/100 g): Corn starch, 31.2; Dextrose, 31.2; Casein, 20.0; corn oil, 6.4; dl-Methionine, 0.3; Vitamine mix, 1.0; AIN-76 mineral mix, 4.9; fiber, 5.0. Rats were fasted (with access to water only) around 07 h00 the morning of their necropsy Randomization:\nTest group: Seventy-seven rats were assigned to 8 groups of 9-10 rats for conduct of the study outlined below.\nOn day 0 of the study, rats from group 2 to 8 were ovariectomized (by bilateral flank incision) under Isoflurane anesthesia. Rats from group 1 were sham-operated.\nRats were weighed on day 0 (surgery) and then, every 2 days during study period as well as on the day of necropsy.\nFood consumption was evaluated every 2 days.\nIn order to determine the effect of treatments on fat percentage, body composition was measured on Day 17 of the study using dual energy x-ray absorptiometry (DEXA; QDR 4500A, Hologic, Waltham, Mass.).\nOn day 21 of the study, approximately 24 hours after the last dosing and 6 hours of fasting, animals under Ketamine-Xylazine anesthesia were killed by exsanguination at the abdominal aorta.\nBlood lipids (Total cholesterol and Triglycerides) and glucose were measured on frozen serum samples using the Boehringer Mannheim Diagnostic Hitachi 911 Analyzer (Boehringer Mannheim Diagnostic Laboratory Systems). Circulating hormones and substrates (Insulin and leptin) were measured on serum sample using the following kits: • Insulin: Linco RIA kit • Leptin: Linco RIA kit Organs and Tissues Collected\nThe following tissues were collected and weighed: • Muscle (right soleus and right VLM), fat (right retroperitoneal and right inguinal), and brown adipose tissue.\nA piece of ˜0.1 g of all tissues (except uterus and vagina) were frozen in liquid nitrogen and kept at −80 C for later determination of lipoprotein-lipase (LPL) activity."}, "[2]": {"system": "human breast cancer MCF-7 cells", "test": "Proliferation of MCF-7 cell line, DNA content (Example 12)", "format": "cell-based", "conditions": "MCF-7 cells", "excerpt": "MCF-7 human breast cancer cells were obtained from the American Type Culture Collection # HTB 22 at passage 147 and routinely grown in phenol red-free Dulbecco's Modified Eagle's-Ham's F12 medium, the supplements mentioned above and 5% FBS. The MCF-7 human breast adenocarcinoma cell line was derived from the pleural effusion of a patient. MCF-7 cells were used between passages 148 and 165 and subcultured weekly.\nCells in their late logarithmic growth phase were harvested with 0.1% pancreatin (Sigma) and resuspended in the appropriate medium containing 50 ng bovine insulin/ml and 5% (v/v) FBS treated twice with dextran-coated charcoal to remove endogenous steroids. Cells were plated in 24-well Falcon plastic culture plates (2 cm2/well) at the indicated density and allowed to adhere to the surface of the plates for 72 h. […] Control cells received only the ethanolic vehicle (0.1% EtOH,v/v). Cells were incubated for the specified time intervals with medium changes at 2- or 3-day intervals. Cell number was determined by measurement of DNA content.\nDose-response curves as well IC50 values were calculated using a weighted iterative nonlinear least-squares regression. All results are expressed as means±SEM."}, "[3]": {"system": "ovariectomized female rats", "test": "Uterine weight, fat and lipid, 20-day treatment (Example 13)", "format": "in vivo, Rattus norvegicus", "conditions": "20 days", "protocol": "The objective of this study was to compare the effect on uterine, weight, fat and blood lipids following treatment with EM-652.HCl, ERA-923 and lasofoxifene, administered alone or in combination with EM-652.HCl, to ovariectomized female rats. For this purpose, each compound was administered orally for 20 days to ovariectomized female rats and at the end of the treatment period, the uterus and fat were collected and weighed.\nd) Diet: • Certified Rodent feed (Lab Diet #5002, pellets) and tap water were provided ad libitum. Randomization:\nSeventy rats were separated into 7 groups of 9 to 11 animals for conduct of the study outlined below:\nAnimals from groups 2 to 9 were ovariectomized under Isoflurane-induced anesthesia on Day 7 of the study.\nThe vehicle or tested compounds were given as suspension in 0.4% methylcellulose by oral gavage (0.5 ml/gavage/rat) from Day 2 to Day 21 of the study.\nRats were weighed on Study Day 1 and at the necropsy (SD 22).\nApproximately 24 hours after the last dosing, overnight fasted rats under Isoflurane-induced anesthesia were killed by exsanguination at the abdominal aorta.\nUteri and retroperitonal adipose tissue were removed and weighed."}, "intact female rats": {"system": "intact female rats", "test": "6-month treatment, fat accumulation in intact female rats receiving or not LHRH-A (Example 5)", "format": "in vivo, Rattus norvegicus", "conditions": "6-month LHRH-A treatment", "protocol": "The objective of this study is to determine the effect on fat of treatment with EM-652.HCl and dehydroepiandrosterone (DHEA) in intact female rats receiving or not a luteinizing hormone releasing hormone agonist (LHRH-A, LHRH ethylamide diacetate). For this purpose, intact female rats, treated or not with LHRH-A (2 μg/rat), received daily administration of EM-652.HCl (2.5 mg/kg) and DHEA (100 mg/kg), alone or in combination, for 6 months. EM-652.HCl was administered orally, DHEA was applied topically while LHRH-A was injected subcutaneously. All treatments were administered once daily.\nOne hundred twenty rats were separated into 8 groups of 15 animals for conduct of the study outlined below:\nThe LHRH-A is available in solution at a concentration of 1.0 mg/ml. We diluted this concentrated solution (in order to obtain a final concentration of 0.004 mg/ml) by using the following vehicle: 0.3% Sodium Chloride and 0.25% Sodium Phosphate monobasic, monohydrate in water. The sodium hydroxide (aqueous) was used to adjust the pH between 5.6-6.2.\nDosing suspensions/solutions were prepared every two weeks according to the most recent body weight (group mean) except for the LHRH-A solution. For EM-652.HCl administered orally, the vehicle (0.4% methylcellulose) was added to the tested compound, previously weighed into a glass bottle, at least 48 hours prior to the first dosing day. To ensure the homogeneity of dosing suspension, it was stirred at least 48 hours at 2 to 8 C. Dosing suspension was kept at 2 to 8 C. For DHEA solution applied topically, the ethanol was added to DHEA and the mix were agitated until dissolution of DHEA. Then, the polypropylene glycol was added and the solution agitated until homogeneity. Dosing solution was kept at 2 to 8 C. For LHRH-A solution injected subcutaneously, a dilution of the concentrated solution using the appropriate vehicle was prepared every month. Dosing solution was kept at 2 to 8 C.\nThe administration of tested compounds or vehicle was given from on Study Day 1 of the protocol. The tested compounds were given as suspension in 0.4% methylcellulose by oral gavage (0.5 ml/gavage/rat) once daily or were applied topically in 50% ethanol-50% propylene glycol (0.5 ml/application/rat) once daily. Rats from groups 5 to 8 received also the LHRH-A once daily by subcutaneous injection (0.5 ml/injection/rat). Rats not receiving a tested compound orally and/or topically received the appropriate vehicle alone.\nBody composition was measured on whole skeleton of animal under Isoflurane-induced anesthesia using dual energy x-ray absorptiometry (DEXA; QDR 4500A, Hologic) during the acclimation period and after 6 months of treatment."}, "[4]": {"conditions": "high carbohydrate diet, 0.5 mg/rat oral gavage"}, "[5]": {"conditions": "OVX rats, commercial rodent diet, 0.5 mg oral, EM-652.HCl 2.5 mg in combinations"}},
  "data": [
    {"compound": "Cc1c(-c2ccc(O)cc2)n(Cc2ccc(OCCN3CCCCC3)cc2)c2ccc(O)cc12", "note": "[ERA-923]", "values": [
      {"measurement": "Serum insulin (in words)", "setting": "[1]; 0.5 mg/rat", "value": "decreased"},
      {"measurement": "Brown adipose tissue Lipoprotein lipase activity", "setting": "[1]; [4]", "value": "1017 ± 83", "unit": "μU/g protein"},
      {"measurement": "Brown adipose tissue weight", "setting": "[1]; [4]", "value": "0.350 ± 0.019", "unit": "g"},
      {"measurement": "Cumulative food intake", "setting": "[1]; [4]", "value": "347 ± 9", "unit": "g"},
      {"measurement": "Serum glucose", "setting": "[1]; [4]", "value": "16.5 ± 2.7", "unit": "mmol/L"},
      {"measurement": "Serum insulin", "setting": "[1]; [4]", "value": "0.113 ± 0.029", "unit": "nmol/L"},
      {"measurement": "Serum leptin", "setting": "[1]; [4]", "value": "2.12 ± 0.44", "unit": "ng/mL"},
      {"measurement": "Serum total cholesterol", "setting": "[1]; [4]", "value": "1.66 ± 0.16", "unit": "mmol/L"},
      {"measurement": "Serum triglycerides", "setting": "[1]; [4]", "value": "0.93 ± 0.24", "unit": "mmol/L"},
      {"measurement": "Soleus muscle Lipoprotein lipase activity", "setting": "[1]; [4]", "value": "11.7 ± 1.9", "unit": "μU/g protein"},
      {"measurement": "Soleus muscle weight", "setting": "[1]; [4]", "value": "0.100 ± 0.004", "unit": "g"},
      {"measurement": "Total weight", "setting": "[1]; [4]", "value": "260 ± 5", "unit": "g"},
      {"measurement": "VastusLateralis muscle weight", "setting": "[1]; [4]", "value": "0.993 ± 0.33", "unit": "g"},
      {"measurement": "White adipose tissue inguinal Lipoprotein lipase activity", "setting": "[1]; [4]", "value": "766 ± 173", "unit": "μU/g protein"},
      {"measurement": "White adipose tissue inguinal weight", "setting": "[1]; [4]", "value": "0.326 ± 0.042", "unit": "g"},
      {"measurement": "White adipose tissue retroperitoneal Lipoprotein lipase activity", "setting": "[1]; [4]", "value": "1750 ± 140", "unit": "μU/g protein"},
      {"measurement": "White adipose tissue retroperitoneal weight", "setting": "[1]; [4]", "value": "1.27 ± 0.15", "unit": "g"},
      {"measurement": "EC50", "setting": "[2]; Homo sapiens, MCF7, text summary of table 12, read-out: EC50 of inhibition (antiestrogen activity)", "value": 3.7, "unit": "nM"},
      {"measurement": "Stimulation of DNA by tested compounds % of 1 nM E2 stimulation", "setting": "[2]; absence of E2", "value": "N.S."},
      {"measurement": "OVX-induced increase in total serum cholesterol levels", "setting": "[3]; 0.5 mg", "value": "completely prevented"},
      {"measurement": "effect on uterine weight compared to the OVX control animals", "setting": "[3]", "value": "no effect"},
      {"measurement": "prevention of body weight increase induced by ovariectomy", "setting": "[3]; OVX rats, 0.5 mg", "value": 59, "unit": "%"},
      {"measurement": "Cholesterol", "setting": "[3]; [5]", "value": "1.20 ± 0.10", "unit": "mmol/L"},
      {"measurement": "Final Body Weight", "setting": "[3]; [5]", "value": "248 ± 5", "unit": "g"},
      {"measurement": "Uterine Weight", "setting": "[3]; [5]", "value": "162.6 ± 5.2", "unit": "mg"}
    ]},
    {"compound": "LHRH ethylamide diacetate [LHRH-A]", "values": [
      {"measurement": "increase of the percentage of body fat", "setting": "intact female rats", "value": 58, "unit": "%"}
    ]}
  ]
}
